Reference: US20220062299A1, “USE OF GLUCOCORTICOID STEROIDS IN PREVENTING AND TREATING CONDITIONS OF MUSCLE WASTING, AGING AND METABOLIC DISORDER” (NORTHWESTERN UNIVERSITY, priority 2018, published 2022)

What was measured:
mdx mice = assay: Dosing of metabolic and endocrine biomarkers in blood, serum and tissues, mdx mice, long-term (40 weeks) weekly prednisone; assay type: in vivo
Dysf-null mice = assay: Dosing of metabolic and endocrine biomarkers in blood, serum and tissues, Dysf-null mice, 32 weeks weekly prednisone; assay type: in vivo
Experimental: Animal handling and steroid regimens. Mice were housed in a pathogen-free dedicated vivarium in accordance with Institutional Animal Care and Use Committee (IACUC) guidelines. Euthanasia was performed through carbon dioxide inhalation followed by cervical dislocation and heart removal. All methods using living animals in this study were performed in ethical accordance with the American Veterinary Medical Association (AVMA) and under protocols fully approved by both the Institutional Animal Care and Use Committee (IACUC) at Northwestern University Feinberg School of Medicine (protocol number ISO00000761). Consistent with the ethical approvals, all efforts were made to minimize suffering. Mice were fed ad libitum with Mouse Breeder Sterilizable Diet (#7904; Harlan Teklad, Indianapolis, Ind.) and maintained on a 12-hour light/dark cycle. mdx mice from the DBA/2J background were obtained from the Jackson Laboratory (Bar Harbor, Me.; stock #013141) and interbred. Male mice were used for reported experiments. Age at start was approximately 6 months for short-term experiments, approximately 6 weeks for long-term experiments. Dysferlin-null (Dysf-null) mice from the 129T2/SvEmsJ background were previously characterized (Demonbreun et al., 2011; Demonbreun et al., 2014). Age at start was approximately 9 months for long-term experiments. For experiments with Dysf-null and wildtype mice, both females and males (approximately 1:1 ratio) were randomized in treatment groups. […] Dosing was based on weekly weight measurements (1 mg/kg body weight, (Sali et al., 2012)) in 100 μl total PBS volume per dose. […] On injection days, stock solutions stored at −20° C. were diluted into sterile Eppendorf tubes containing sterile phosphate buffered saline (PBS) (#14190; Thermo Fisher, Waltham, Mass.). Puromycin (cat #A1113803, Thermo Scientific, Waltham, Mass.) was administered i.p. as 0.040 μmol/body g, and tissues were snap-frozen 30 minutes after injection. Sterile BD Micro-Fine IV Insulin Syringes (#14-829-1A; Fisher Scientific, Waltham, Mass.) were used to inject the intraperitoneal cavity of non-sedated animals. All animal analyses both during treatment and at endpoint were conducted blinded to treatment groups.
Dosing of metabolic and endocrine biomarkers. Glycogen was quantitated using the Glycogen Assay Kit (#ab65620; Abcam, Cambridge, Mass.) from approximately 25 mg frozen-pulverized whole tissue, following manufacturer's instructions and internal standards for calculating μg/mg values. For measurement of whole-tissue ATP/NAD^+ levels, approximately 25 mg frozen-pulverized tissue was extracted in 10% perchloric acid and neutralized in 0.75 M K2CO3, as previously described (Ramsey et al., 2009). NAD+ and ATP were measured by high-pressure liquid chromatography (HPLC) with Shimadzu LC-20A pump (Shimadzu Scientific Instr Inc, Addison, Ill.) and UV-VIS detector, using a Supelco LC-18-T column (15 cm×[…]; #58970-U; Millipore-Sigma, St Louis, Mo.). […] Corticosterone was measured in mouse serum and cortisol was measured in human serum using dedicated ELISA kits (#ADI-900-097, Enzo Life Science, Farmingdale, N.Y.; #K7430-100, BioVision, Milpitas, Calif.) according to manufacturer's instructions and internal standards to calculate ng/ml values. Insulin levels were quantitated in mouse and human serum with species-specific ELISA kits (#10-1247-01 (mouse-specific); #10-1113-01 (human-specific); Mercodia, Uppsala, Sweden), following manufacturer's instructions and internal standards to calculate ng/ml values. Free fatty acids were quantitated using Enzychrom Free Fatty Acid Assay kit (#EFFA-100; BioAssay Systems, Hayward, Calif.), following kit's instructions and standards to calculate μM (serum) and nmol/mg (tissue) values.

[1] = weekly prednisone, mean ± s.e.m

## C[C@]12C=CC(=O)C=C1CC[C@@H]1[C@@H]2C(=O)C[C@@]2(C)[C@H]1CC[C@]2(O)C(=O)CO [prednisone, Prednisone]
Mdx mice
  ATP, NAD+, and glycogen in muscle and blood lactate: increase
Dysf-null mice; weekly prednisone
  BCAA utilization in muscle: improved
  endpoint levels of ATP, NAD+, and glycogen in muscle and heart: increased
Dysf-null mice; weekly prednisone 1 mg/kg i.p., mean ± s.e.m
  fasting glycemia: 109 ± 3.17 mg/dL
Dysf-null mice; [1]
  resting lactate: 3.36 ± 0.21 mM
  serum BCAA: 419 ± 9.95 µM
  serum corticosterone: 143 ± 5.2 ng/mL
  serum creatine kinase: 1.31 ± 0.04 U/ml
  serum free fatty acids: 475 ± 9.18 µM
  serum β-hydroxybutyrate: 323 ± 9.61 µM
  tissue BCAA, diaphragm: 45.4 ± 1.06 nmol/mg
  tissue BCAA, heart: 0.91 ± 0.03 nmol/mg
  tissue BCAA, omental fat: 24.5 ± 0.8 nmol/mg
  tissue BCAA, quadriceps: 90.9 ± 2.58 nmol/mg
  tissue free fatty acids, diaphragm: 0.753 ± 0.07 nmol/mg
  tissue free fatty acids, heart: 0.438 ± 0.05 nmol/mg
  tissue free fatty acids, omental fat: 3.49 ± 0.38 nmol/mg
  tissue free fatty acids, quadriceps: 1.05 ± 0.06 nmol/mg
  tissue β-hydroxybutyrate, diaphragm: 26.5 ± 2.11 nmol/mg
  tissue β-hydroxybutyrate, heart: 11.9 ± 0.51 nmol/mg
  tissue β-hydroxybutyrate, omental fat: 30.2 ± 0.85 nmol/mg
  tissue β-hydroxybutyrate, quadriceps: 43.8 ± 2.23 nmol/mg
